In patent publication US8772499B2, “TRPV3 modulators” (AbbVie Inc., priority 2011, dated 2014):
Like-named read-outs stand apart in the source and are kept apart here.

What was measured:
[1] = In vitro human microsomal stability assay; format: in vitro ADME; conditions: human, microsomes, 0.5 h, 0.5 μM, pH 7.4
Summary of the method: (§1)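 Compound incubated at 37 °C with NADPH-supplemented liver microsomes, either human or from Sprague-Dawley rat, to assess metabolic stability.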

[2] = target: T1, human TRPV3 (Homo sapiens, UniProt Q8NET8); assay: In vitro antagonism of recombinant human TRPV3 activation (FLIPR Tetra calcium assay); format: cell-based; conditions: HEK293 cells stably expressing human TRPV3, agonist 2-APB at 80 μM
T1 construct: expressed in transfected cells
T1 sequence (Q8NET8 1-790): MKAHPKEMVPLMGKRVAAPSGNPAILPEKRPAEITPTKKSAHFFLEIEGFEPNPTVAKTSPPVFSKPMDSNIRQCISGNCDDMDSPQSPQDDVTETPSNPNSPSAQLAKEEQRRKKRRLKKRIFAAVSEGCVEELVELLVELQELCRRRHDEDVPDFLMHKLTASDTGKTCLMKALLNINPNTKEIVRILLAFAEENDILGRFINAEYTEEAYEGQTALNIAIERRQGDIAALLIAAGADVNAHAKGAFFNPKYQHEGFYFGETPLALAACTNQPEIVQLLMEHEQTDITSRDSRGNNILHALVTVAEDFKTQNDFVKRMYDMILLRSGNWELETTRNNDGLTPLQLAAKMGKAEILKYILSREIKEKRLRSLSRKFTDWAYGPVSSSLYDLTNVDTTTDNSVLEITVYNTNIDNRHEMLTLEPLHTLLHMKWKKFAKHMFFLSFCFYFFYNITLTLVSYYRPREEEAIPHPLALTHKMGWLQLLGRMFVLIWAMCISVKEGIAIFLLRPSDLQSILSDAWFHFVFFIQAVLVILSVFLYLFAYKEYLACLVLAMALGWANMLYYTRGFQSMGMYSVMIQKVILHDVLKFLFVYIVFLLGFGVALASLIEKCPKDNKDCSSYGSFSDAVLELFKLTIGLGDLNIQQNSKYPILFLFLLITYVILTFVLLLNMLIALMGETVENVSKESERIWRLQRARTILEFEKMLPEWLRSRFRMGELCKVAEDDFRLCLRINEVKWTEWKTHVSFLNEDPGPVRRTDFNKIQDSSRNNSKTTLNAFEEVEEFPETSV
Summary of the method: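 Calcium flux read over a 10 min run: compound added at 10 s to Calcium-4-loaded human TRPV3-HEK293 cells, agonist 2-APB (80 μM, its EC80) after 3 min. IC50 derived from peak-minus-baseline signal as percentage of uninhibited 2-APB response, typically averaged over at least two runs.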

[3] = In vitro rat microsomal stability assay; format: in vitro ADME, rat (Sprague-Dawley); conditions: Sprague-Dawley, rat, microsomes, 0.5 h, 0.5 μM, pH 7.4
Summary of the method: as §1

[4] = actual measured value shown parenthetically, in most cases average of at least two runs, read-out: IC50
[5] = reported range, read-out: IC50 (range class)

SMILES | HUMAN MICROSOMAL STABILITY (% REMAINING AFTER 30 MINUTES) [1] | IC50 [2, 4] | RAT MICROSOMAL STABILITY (% REMAINING AFTER 30 MINUTES) [3] | IC50 [2, 5]
O=C1CC(c2ccc(Cl)c(Cl)c2)([C@H](O)c2ccccn2)C1 [Example 117, 3-(3,4-dichlorophenyl)-3-[(S)-hydroxy(pyridin-2-yl)methyl]cyclobutanone] | 18% | 2.42 µM | 50% | –
OC(c1ccccn1)C1(c2cccc(C(F)(F)F)c2)CCCO1 (single isomer, unassigned) [Example 107, (syn)-pyridin-2-yl{2-[3-(trifluoromethyl)phenyl]tetrahydrofuran-2-yl}-methanol] | 31% | 2.93 µM | 0.23% | –
OC(c1ccccn1)C1(C2CCC(F)(F)CC2)CCC1 (stereo not drawn) [Example 274, [1-(4,4-difluorocyclohexyl)cyclobutyl](pyridin-2-yl)methanol] | 55% | 3.11 µM | 10% | –
OC(c1ccccn1)C1(c2ccccc2OC(F)(F)F)CCCO1 (single isomer, unassigned) [Example 97, (syn)-pyridin-2-yl{2-[2-(trifluoromethoxy)phenyl]tetrahydrofuran-2-yl}-methanol] | 6.4% | 0.3 µM | 0.16% | –
Nc1cccnc1C(O)C1(c2cccc(OC(F)(F)F)c2)CCC1 (stereo not drawn) [Example 124, (3-aminopyridin-2-yl) {1-[3-(trifluoromethoxy)phenyl]cyclobutyl}methanol] | 1.6% | > 20 µM | <0.01% | > 20 µM
Cc1cccnc1[C@@H](O)C1(c2ccc(Cl)c(Cl)c2)CCC1 [Example 30, (S)-[1-(3,4-dichlorophenyl)cyclobutyl] (3-methylpyridin-2-yl)methanol] | 1.5% | 1.72 µM | 0.98% | –
O[C@H](c1ccccn1)C1(c2ccc(C(F)(F)F)c(F)c2)CCC1 [Example 29, (S)-{1-[3-fluoro-4-(trifluoromethyl)phenyl]cyclobutyl}(pyridin-2-yl)-methanol] | 5.3% | 2.54 µM | 45% | –
Cc1ccccc1CC1(C(O)c2ccccn2)CCC1 (stereo not drawn) [Example 253, [1-(2-methylbenzyl)cyclobutyl](pyridin-2-yl)methanol] | 0.21% | 3.4 µM | 0.017% | –
O=C1CC(c2cccc(C(F)(F)F)c2)([C@@H](O)c2ccccn2)C1 (single isomer, unassigned) [Example 243] | 64% | 18.5 µM | 55% | –
OC(c1ccccn1)C1(c2cccc(F)c2)CCCO1 (single isomer, unassigned) [Example 101, (syn)-[2-(3-fluorophenyl)tetrahydrofuran-2-yl](pyridin-2-yl)methanol] | 40% | > 20 µM | 0.17% | > 20 µM
CN1CC(c2ccc(C(F)(F)F)cc2)(C(O)c2ccccn2)C1 (stereo not drawn) [Example 155, {1-methyl-3-[4-(trifluoromethyl)phenyl]azetidin-3-yl}(pyridin-2-yl)-methanol] | >85% | 17 µM | 76% | –
OC(c1ccccn1)C1(c2cccc(OC(F)(F)F)c2)CC(F)(F)C1 (stereo not drawn) [Example 114, {3,3-difluoro-1-[3-(trifluoromethoxy)phenyl]cyclobutyl}(pyridin-2-yl)-methanol] | 6.9% | 0.23 µM | 11% | –
CC(C)(C)OC(=O)N1CCC(C2(C(O)c3ccccn3)CCC2)C1 (stereo not drawn) [Example 265, tert-butyl 3-{1-[hydroxy(pyridin-2-yl)methyl]cyclobutyl}pyrrolidine-1-carboxylate] | 43% | 5.64 µM | 0.059% | –
OC(C1CCc2cccnc21)C1(c2ccccc2OC(F)(F)F)CCC1 (stereo not drawn) [Example 194, (syn)-6,7-dihydro-5H-cyclopenta[b]pyridin-7-yl{1-[2-(trifluoromethoxy)-phenyl]cyclobutyl}methanol] | 0.08% | > 20 µM | <0.01% | > 20 µM
OC(c1ccccn1)C1(C2CCCOC2)CCC1 (stereo not drawn) [Example 281, pyridin-2-yl[1-(tetrahydro-2H-pyran-3-yl)cyclobutyl]methanol] | >85% | 7.69 µM | 0.054% | –
OC(c1ccccn1)C1(C2CCc3ccccc32)CCC1 (stereo not drawn) [Example 55, [1-(2,3-dihydro-1H-inden-1-yl)cyclobutyl](pyridin-2-yl)methanol] | 1.6% | 7.12 µM | 0.29% | –
OC(C1CCCc2cccnc21)C1(c2ccccc2OC(F)(F)F)CCC1 (stereo not drawn) [Example 191, (anti)-5,6,7,8-tetrahydroquinolin-8-yl{1-[2-(trifluoromethoxy)phenyl]-cyclobutyl}methanol] | <0.01% | > 7.4 µM | <0.01% | –
OC(c1ccccn1)C1(c2cc(C(F)(F)F)cc(C(F)(F)F)c2)CCC1 (stereo not drawn) [Example 13, {1-[3,5-bis(trifluoromethyl)phenyl]cyclobutyl}(pyridin-2-yl)methanol] | 7.4% | 0.6 µM | 19% | –
OC(c1ccccn1)C1(c2cccc(C(F)(F)F)c2)CCC1 (stereo not drawn) [Example 6, pyridin-2-yl{1-[3-(trifluoromethyl)phenyl]cyclobutyl}methanol] | 1.2% | 0.35 µM | 2.3% | –
OC(c1ccccn1)C1(c2ccc(C(F)(F)F)cc2)CC2(C1)OCCO2 (stereo not drawn) [Example 161, pyridin-2-yl{2-[4-(trifluoromethyl)phenyl]-5,8-dioxaspiro[3.4]oct-2-yl}-methanol] | 61% | 3.27 µM | <0.01% | –
